In patent US8188301B2, “Disubstituted phenylpyrrolidines as modulators of cortical catecholaminergic neurotransmission” (NSAB, Filial af NeuroSearch Sweden AB, Sverige, priority 2007, dated 2012):
Where a name gives a salt, the structure may show the parent alone. Read-outs that look alike come from different tables or passages of the source. Values belong to the compound of their own block, whether it stands above or below them.

Columns and labels:
[1] = tested on: DOPAC levels (3,4-dihydroxyphenylacetic acid) in the rat striatum; experiment: Tissue content of DOPAC in rat striatum after systemic administration of test compound (in vivo neurochemistry); details: for change in vivo at 100 µmol/kg: sc, 1 h
Protocol: The measurement of the tissue content of DOPAC is well established in the field of research since the 1960's. In short, male Sprague-Dawely rats are administered the test compound 60 minutes prior to decapitation. The brain is rapidly taken out and dissected. The striatum is rapidly frozen and subsequently quantitatively analysed with respect to its content of DOPAC by means of HPLC and electrochemical detection. The number of animals used for each test compound/vehicle is 4/group.
Male Sprague-Dawley rats weighing 220-320 g are used throughout the experiments. Sixty (60) minutes following administration of the test substance, the rats are decapitated. Directly after decapitation the brain is removed from the skull and put on a glass petri bowl filled with ice. The limbic system (containing the nucleus accumbens—both the core and shell, most parts of the olfactory tubercle and ventral pallidum) is dissected using two thin, angled tweezers and put directly on foil on dry ice (carbon dioxide −78° C.). The striatum and cortex are then dissected and also put on dry ice. The time from decapitation until the last tissue is dissected varies from four to six minutes. The tissue is weighed using a Sartorius BP3105 connected to a computer and packed in labelled tin foil, then stored in an −80° C. freezer. Great care is taken in order to keep the tissue frozen until the time of neurochemical analysis. Each brain part is subsequently analyzed with respect to its content of monoamines and their metabolites.
The monoamine transmitter substances (NE (norepinephrine), DA (dopamine), 5-HT (serotonin)) as well as their amine (NM (normethanephrine), 3-MT (3-methoxy-tyramine)) and acid (DOPAC (3,4-dihydroxyphenylacetic acid), 5-HIAA (5-hydroxyindoleacetic acid), HVA (homovanillic acid)) metabolites are quantified in brain tissue homogenates by HPLC separations and electrochemical detection.
The analytical method is based on two chromatographic separations dedicated for amines or acids. Two chromatographic systems share a common auto injector with a 10-port valve and two sample loops for simultaneous injection on the two systems. Both systems are equipped with a reverse phase column (Luna C18(2), dp 3 μm, 50*2 mm i.d., Phenomenex) and electrochemical detection is accomplished at two potentials on glassy carbon electrodes (MF-1000, Bioanalytical Systems, Inc.). The column effluent is passed via a T-connection to the detection cell or to a waste outlet. This is accomplished by two solenoid valves, which block either the waste or detector outlet. By preventing the chromatographic front from reaching the detector, better detection conditions are achieved. The aqueous mobile phase (0.4 mL/min) for the acid system contains citric acid 14 mM, sodium citrate 10 mM, MeOH 15% (v/v) and EDTA 0.1 mM. Detection potentials relative to Ag/AgCl reference are 0.45 and 0.60V. The aqueous ion pairing mobile phase (0.5 mL/min) for the amine system contains citric acid 5 mM, sodium citrate 10 mM, MeOH 9% (v/v), MeCN 10.5% (v/v), decane sulfonic acid 0.45 mM, and EDTA 0.1 mM. Detection potentials relative to Ag/AgCl reference are 0.45 and 0.65V.

[2] = tested on: DOPAC levels (3,4-dihydroxyphenylacetic acid) in the rat striatum; details: 100 μmol/kg s.c., %-increase from control value, data taken from Table 2 in Ref 1 (J. Med. Chem. 1994, 37, 2735); cited from earlier work
[3] = tested on: extracellular levels of dopamine, norepinephrine and serotonin in p.f. cortex and striatum; experiment: In vivo microdialysis in awake and freely moving rats; design: species or system rat; details: 10 mg/kg s.c., FIG. 21
[4] = rat striatum, 100 μmol/kg s.c., %-increase from control value, 60 minutes after administration
[5] = Rattus norvegicus, read-out: DOPAC %-increase, rat striatum, 100 μmol/kg s.c., %-increase from control value, 60 minutes after administration

melting point: 117 to 118 °C
SMILES: CN1CCC(O)(c2cc(F)cc(Cl)c2)C1 (centres unmarked) (as salt: oxalic acid salt) [Example 65]

melting point: 114 to 115 °C
SMILES: CN1CCC(O)(c2cc(F)cc(Cl)c2)C1 (centres unmarked) (as salt: oxalic acid salt) [Example 66]

SMILES: CCN1CCC(O)(c2cc(F)cc(Cl)c2)C1 (centres unmarked) (as salt: oxalic acid salt) [Example 67]
melting point: 113 to 114 °C

SMILES: CCN1CCC(O)(c2cc(F)cc(F)c2)C1 (single isomer, unassigned; (+)) (as salt: oxalic acid salt) [Example 2, (+)-3-(3,5-DIFLUOROPHENYL)-1-ETHYLPYRROLIDIN-3-OL]
melting point: 137 to 139 °C

melting point: 131 to 132 °C
SMILES: COCCN1CCC(O)(c2cc(F)cc(F)c2)C1 (single isomer, unassigned; (+)) (as salt: oxalic acid salt) [Example 54, (+)-3-(3,5-DIFLUOROPHENYL)-1-(2-METHOXYETHYL)PYRROLIDIN-3-OL]

melting point: 149 to 150 °C
SMILES: COCCN1CCC(O)(c2cccc(F)c2F)C1 (single isomer, unassigned; (+)) (as salt: oxalic acid salt) [Example 60, (+)-3-(2,3-DIFLUOROPHENYL)-1-(2-METHOXYETHYL)PYRROLIDIN-3-OL]

melting point: 144 to 145 °C
SMILES: OC1(c2cccc(F)c2F)CCN(CCC(F)(F)F)C1 (single isomer, unassigned; (+)) (as salt: oxalic acid salt) [Example 63, (+)-3-(2,3-DIFLUOROPHENYL)-1-(3,3,3-TRIFLUOROPROPYL)PYRROLIDIN-3-OL]

SMILES: CCN1CCC(O)(c2cc(F)cc(F)c2)C1 (single isomer, unassigned; (+)) [Example 2, (+)-3-(3,5-DIFLUOROPHENYL)-1-ETHYLPYRROLIDIN-3-OL]
DOPAC %-increase [1, 4]: −16%

SMILES: CCN1CCC(O)(c2cccc(F)c2F)C1 (single isomer, unassigned; (+)) [Example 36, (+)-3-(2,3-DIFLUOROPHENYL)-1-ETHYLPYRROLIDIN-3-OL]
DOPAC %-increase [1, 4]: −15%

SMILES: CCN1CCC(O)(c2cc(F)cc(F)c2)C1 (single isomer, unassigned; (-)) (as salt: oxalic acid salt) [Example 1, (−)-3-(3,5-DIFLUOROPHENYL)-1-ETHYLPYRROLIDIN-3-OL]
melting point: 111 to 112 °C

SMILES: CCN1CCC(O)(c2cccc(F)c2F)C1 (single isomer, unassigned; (-)) (as salt: oxalic acid salt) [Example 32, (−)-3-(2,3-DIFLUOROPHENYL)-1-ETHYLPYRROLIDIN-3-OL]
melting point: 118 to 120 °C

melting point: 146.7 °C
SMILES: COCCN1CCC(O)(c2cccc(F)c2F)C1 (single isomer, unassigned; (-)) (as salt: oxalic acid salt) [Example 42, (−)-3-(2,3-DIFLUOROPHENYL)-1-(2-METHOXYETHYL)PYRROLIDIN-3-OL]

melting point: 130 to 131 °C
SMILES: COCCN1CCC(O)(c2cc(F)cc(F)c2)C1 (single isomer, unassigned; (-)) (as salt: oxalic acid salt) [Example 45, (−)-3-(3,5-DIFLUOROPHENYL)-1-(2-METHOXYETHYL)PYRROLIDIN-3-OL]

melting point: 144 °C
SMILES: OC1(c2cccc(F)c2F)CCN(CCC(F)(F)F)C1 (single isomer, unassigned; (-)) (as salt: oxalic acid salt) [Example 48, (−)-3-(2,3-DIFLUOROPHENYL)-1-(3,3,3-TRIFLUOROPROPYL)PYRROLIDIN-3-OL]

SMILES: CCN1CCC(O)(c2cc(F)cc(F)c2)C1 (single isomer, unassigned; (-)) [Example 1, (−)-3-(3,5-DIFLUOROPHENYL)-1-ETHYLPYRROLIDIN-3-OL]
DOPAC %-increase [1, 4]: 0%

SMILES: CCN1CCC(O)(c2cccc(F)c2F)C1 (single isomer, unassigned; (-)) [Example 32, (−)-3-(2,3-DIFLUOROPHENYL)-1-ETHYLPYRROLIDIN-3-OL]
DOPAC %-increase [1, 4]: +8%

SMILES: CCN1CCC(O)(c2ccc(F)c(Cl)c2)C1 (centres unmarked) [Example 3, 3-(3-CHLORO-4-FLUOROPHENYL)-1-ETHYLPYRROLIDIN-3-OL]
change in vivo at 100 µmol/kg [1, 5]: -28%

SMILES: CCN1CCC(O)(c2cccc(F)c2F)C1 (centres unmarked) [Example 4, 3-(2,3-DIFLUOROPHENYL)-1-ETHYLPYRROLIDIN-3-OL]
DOPAC %-increase [1, 4]: −10%

SMILES: CCN1CCC(O)(c2cc(F)cc(Cl)c2)C1 (centres unmarked) [Example 5, 3-(3-CHLORO-5-FLUOROPHENYL)-1-ETHYLPYRROLIDIN-3-OL]
change in vivo at 100 µmol/kg [1, 5]: -26%

SMILES: CCN1CCC(O)(c2cc(Cl)cc(Cl)c2)C1 (centres unmarked) [Example 6, 3-(3,5-DICHLOROPHENYL)-1-ETHYLPYRROLIDIN-3-OL]
change in vivo at 100 µmol/kg [1, 5]: -10%

SMILES: CCCN1CCC(O)(c2ccc(F)c(F)c2)C1 (centres unmarked) [Example 7, 3-(3,4-DIFLUOROPHENYL)-1-PROPYLPYRROLIDIN-3-OL]
change in vivo at 100 µmol/kg [1, 5]: 0%

SMILES: CCN1CCC(O)(c2cc(F)cc(F)c2)C1 (centres unmarked) [Example 8, 3-(3,5-DIFLUOROPHENYL)-1-ETHYLPYRROLIDIN-3-OL]
DOPAC %-increase [1, 4]: −24%

SMILES: CCCN1CCC(O)(c2cc(F)cc(F)c2)C1 (centres unmarked) [Example 9, 3-(3,5-DIFLUOROPHENYL)-1-PROPYLPYRROLIDIN-3-OL]
change in vivo at 100 µmol/kg [1, 5]: -5%

SMILES: CCN1CCC(O)(c2ccc(Cl)c(Cl)c2)C1 (centres unmarked) [Example 10, 3-(3,4-DICHLOROPHENYL)-1-ETHYLPYRROLIDIN-3-OL]
change in vivo at 100 µmol/kg [1, 5]: -26%

SMILES: CN1CCC(F)(c2cc(F)cc(F)c2)C1 (centres unmarked) [Example 11, 3-(3,5-DIFLUOROPHENYL)-3-FLUORO-1-METHYLPYRROLIDINE]
change in vivo at 100 µmol/kg ([1]; rat striatum, 100 μmol/kg s.c., %-increase from control value, 60 minutes after administration, read-out: DOPAC %-increase): -4%

SMILES: CCN1CCC(O)(c2ccc(F)c(F)c2)C1 (centres unmarked) [Example 12, 3-(3,4-DIFLUOROPHENYL)-1-ETHYLPYRROLIDIN-3-OL]
change in vivo at 100 µmol/kg [1, 5]: -19%

SMILES: CCCN1CCC[C@@H](c2cccc(S(C)(=O)=O)c2)C1 [Example 16 of ref. 1]
DOPAC %-increase [2]: +150^2%

SMILES: CN1CCN2c3ncccc3Cc3ccccc3C2C1 (centres unmarked) [mirtazapine]
cortical NE levels [3]: marked increases in cortical NE levels
extracellular norepinephrine and dopamine in the cortex [3]: increase predominantly extracellullar norepinephrine and dopamine in the cortex
